# Key:
# [1] = target: T1, S1P2 (Homo sapiens, UniProt O95136); assay: S1P2 antagonist test, S1P2 CRE-bla CHO cells; type: cell-based; settings: S1P2 CRE-BLA CHO cell line
# T1 construct: expressed in transfected cells; host or cells: S1P2 CRE-bla CHO cells
# Method: (§1) Since AD2900 is a sphingolipid analogue with properties that resemble those of S1P, we intended to examine its ability to interact with the S1P receptors. To delineate whether AD2900 can function as an agonistic or antagonistic compound to any of the S1P receptors, we used a high-throughput screening cell-based assay, employing cell lines stably transfected with human S1P receptors 1, 2, 3, 4, or 5 [37]. In this experiment, a compound with an IC50 or EC50 value ≤10 μM for a certain S1P receptor is considered active as an antagonist or an agonist, respectively. The results illustrate that AD2900 acts as an antagonist to all S1P receptors (Table 1, Supplementary Figure 3). […] No agonist activation was evident.
# (§2) The S1P1 agonist test and S1P2, S1P3, S1P4, and S1P5 agonist and antagonist tests were conducted as previously described using S1P1 CRE-bla CHO cells, S1P2 CRE-bla CHO cells, S1P3 NFAT-bla CHO cells, Tango™ S1P4 (EDG6)-bla U-2 OS cells, and Tango™ S1P5 ([…])-bla U-2 OS cells. The S1P1 antagonist assay was carried out according to the manufacturer’s instructions using a Tango™ S1P1 (EDG1)-bla U-2 OS Cell-Based Assay (Invitrogen, NY, USA).
# [2] = target: T2, S1P3 (Homo sapiens, UniProt Q99500); assay: S1P3 antagonist test, S1P3 NFAT-bla CHO cells; type: cell-based; settings: S1P3 NFAT-BLA CHO cell line
# T2 construct: expressed in transfected cells; host or cells: S1P3 NFAT-bla CHO cells
# Method: as §1, §2
# [3] = tested on: non-activated PBMCs; assay: Proliferation of non-activated PBMCs, [3H] thymidine; type: cell-based, human; settings: different concentrations
# [4] = tested on: C57BL/6 mice; assay: T-cell subpopulations (naive, Tcm-like, Tef/em-like) in blood, spleen and lymph nodes, FACS; type: in vivo, mouse
# Method: We have shown that AD2900 has a unique effect on T-cell distribution in mice. Since T-cell subpopulations such as naïve T cells, central memory T cells (Tcm), and effector/effector memory T cells (Tef/em) have designated roles in the immune response, the influence of AD2900 on the localization of these subpopulations was investigated. The analysis of T-cell subpopulations was performed by FACS using antibodies against commonly accepted surface markers. Some of the molecules that we used as markers are involved in T-cell migration, and their expression can be affected by our treatment. […] Therefore, we refer to the CCR7-CD44+ T-cell population as Tef/em-like cells and to the CCR7+ CD44+ (Figure 6) or CD44+ CD62L+ (Supplementary Figure 4B) T-cell population as Tcm-like cells. The calculated cell number of the different subpopulations in control mice is shown in the left panel of Figure 6.
# Figure 6 AD2900 treatment influences the distribution of mice T-cell populations in the blood, spleen, and peripheral lymph nodes C57BL/6 mice were orally administered with AD2900 or FTY720, as shown in Figure 4. Leukocytes from blood, spleen, and pLNs were collected and stained with TCR-β, CD44, and CCR7 fluorescent antibodies and then analyzed by FACS analysis. The percentages of CCR7+ CD44+ Tcm-like cells (left panel), CCR7-CD44+ Tef/em-like cells (central panel), and CCR7 + CD44-naive T cells (right panel) of the total T-cell population (TCR-β+) in blood (A), spleen (B), and pLNs (C) are shown. All the significances are compared to untreated healthy mice. Results summarize three independent experiments. Results of Student’s t-test:*(P < 0.05, two-tailed test), ** (P < 0.01, two-tailed test), *** (P < 0.001, two-tailed test), **** (P < 0.0001, two-tailed test).
# Murine lymphocytes: The phenotype of murine lymphocytes was analyzed by flow cytometry using anti-CD3e-FITC, anti-CD19-PB, anti-CCR7-APC, anti-CD44-FITC, anti-CD62L-APC, and anti-TCR-β-PB (Biolegend, CA, USA).
# C57BL/6 female mice aged 7–8 weeks were obtained from Harlan Laboratories (Jerusalem, Israel). The animal study was conducted under appropriate conditions and was approved by the Institutional Animal Care and Use Committee of the Hebrew University of Jerusalem in accordance with the national laws and regulations for the protection of animals. AD2900 was dissolved in 10% BSA (MP Biomedicals, CA, USA) in DDW at 1 mg/ml and then further diluted in 200 ml water to get final concentrations at 1.8, 2.7, or 3.6 mg/l. AD2900 and FTY720 were supplied ad libitum to the mice for 2 days or 7 days. At the end of the experiment, blood was collected, and the mice were sacrificed and tissues (lymph nodes and spleen) were harvested.
# [5] = oral, as in Figure 4, % of total T cells
# T1 sequence (O95136 whole entry): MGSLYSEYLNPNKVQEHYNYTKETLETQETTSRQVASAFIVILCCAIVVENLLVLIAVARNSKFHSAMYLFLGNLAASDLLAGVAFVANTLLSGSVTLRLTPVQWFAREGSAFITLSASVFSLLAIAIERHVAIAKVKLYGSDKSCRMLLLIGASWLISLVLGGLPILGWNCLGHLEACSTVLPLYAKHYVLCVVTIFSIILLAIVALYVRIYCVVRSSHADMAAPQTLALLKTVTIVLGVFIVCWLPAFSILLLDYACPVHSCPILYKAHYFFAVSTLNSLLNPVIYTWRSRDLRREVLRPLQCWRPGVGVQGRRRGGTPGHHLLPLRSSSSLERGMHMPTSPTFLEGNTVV
# T2 sequence (Q99500 whole entry): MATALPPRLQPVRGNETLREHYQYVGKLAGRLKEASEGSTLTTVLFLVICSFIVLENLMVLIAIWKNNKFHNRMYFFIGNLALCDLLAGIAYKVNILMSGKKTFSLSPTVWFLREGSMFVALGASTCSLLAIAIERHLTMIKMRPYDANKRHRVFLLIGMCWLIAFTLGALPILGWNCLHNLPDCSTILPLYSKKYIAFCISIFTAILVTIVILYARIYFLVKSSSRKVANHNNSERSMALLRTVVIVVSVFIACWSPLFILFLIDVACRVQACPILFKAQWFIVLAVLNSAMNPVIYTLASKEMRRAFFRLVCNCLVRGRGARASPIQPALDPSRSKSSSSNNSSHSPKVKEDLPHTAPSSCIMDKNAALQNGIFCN
smiles,measurement,setting,value
CCCCCCCCCCCCCCCCNC(CO)(CO)CO [AD2900],IC50,[1],3.2 µM
same,IC50,[2],6.2 µM
same,influence on the proliferation of non-activated PBMCs,[3],no significant differences
same,Tcm-like cells in the blood and lymph nodes,[4]; compared to control,significantly downregulated
same,percentage of Tcm-like cells in the spleen,[4]; compared to control,significantly upregulated
same,percentage of naïve T-cell population among all T cells in the lymph nodes,[4]; compared with the untreated condition,remained the same
same,upregulation of the percentage of Tef/em-like cells in the blood,"[4]; oral, as in Figure 4",48% ± 1%
same,"naïve T cells (CCR7+CD44-) reduced, mean of up to, of that in the control, in the blood",[4]; [5],32% ± 6%
same,"naïve T cells (CCR7+CD44-) reduced, of that in the control, in the spleen",[4]; [5],38% ± 12%

# From PMC5581131, “The novel sphingosine-1-phosphate receptors antagonist AD2900 affects lymphocyte activation and inhibits T-cell entry into the lymph nodes” (Oncotarget, 2017)
